Measured values: EP4786474A1, “CRYSTALLINE FORM OF QUINAZOLINE DERIVATIVE AND PREPARATION METHOD THEREFOR” (Jiangsu Hengrui Pharmaceuticals Co., Ltd., priority 2023, dated 2025)

Key:
[1] = Influencing factor stability study; format: physicochemical
Description: Samples of the crystal forms D, E, and H were spread in open containers and left to stand under light exposure (4500 Lux), high temperature (40 °C and 60 °C), and high humidity (RH 75% and RH 92.5%) conditions for 1 month to investigate their stability.

[2] = DVS (dynamic vapor sorption) hygroscopicity testing; format: physicochemical
From the text: According to the description of hygroscopicity characteristics and the definition of hygroscopic weight gain in "General Rule 9103, Guidelines for Hygroscopicity Trials for Pharmaceuticals" in the Chinese Pharmacopoeia, Volume IV, 2015 Edition: • deliquescent: sufficient water is absorbed to form a liquid; • extremely hygroscopic: the hygroscopic weight gain is not less than 15%; • hygroscopic: the hygroscopic weight gain is less than 15% but not less than 2%; • slightly hygroscopic: the hygroscopic weight gain is less than 2% but not less than 0.2%; • nonhygroscopic or practically nonhygroscopic: the hygroscopic weight gain is less than 0.2%.
DVS refers to dynamic vapor sorption: The analysis was performed using SMS DVS Advantage; at 25 °C, the humidity was changed as follows: 50%-95%-0%-95%-50%, in steps of 10% (5% for the last step) (specific humidity ranges are shown in corresponding patterns, and those listed here were used in most cases); the criterion was dm/dt being not greater than 0.002%.

[3] = Long-term/accelerated stability; format: physicochemical
Description: Samples of the crystal forms D, E, and H were left to stand under 25 °C/60% RH and 40 °C/75% RH conditions to investigate their stability: Table 30.

[4] = test system: HER2 wild-type Ba/F3 cells; assay: Ba/F3 cell proliferation assay (Celltiter-Glo); format: cell-based; details: 72 h incubation
Description: (§1) EGFR wild-type Ba/F3 cells (Cobioer, Cat. No. CBP73110) in the logarithmic growth phase were seeded into a 96-well plate at 2.5 × 10^3 cells/100 µL in a growth medium, and HER2 wild-type Ba/F3 cells (Cobioer, Cat. No. CBP73110) or HER2 A775_G776insYVMA mutant Ba/F3 cells (Cobioer, Cat. No. CBP73184) in the logarithmic growth phase were seeded into a 96-well plate at 5 × 10^3 cells/100 µL in a growth medium. The plates were placed in a cell incubator at 37 °C overnight. The next day, the compound diluted in a 3-fold gradient with a medium was added to the plates at 100 µL/well. All treatments were performed in triplicate. The plates were incubated in the cell incubator at 37 °C for another 72 h. Celltiter-Glo Luminescent cell viability assay was performed.
(§2) The cell proliferation rate corresponding to each well was calculated according to the following formula: proliferation% = (test compound well G3 - G0 average value)/(DMSO control well G3 average value - G0 average value) × 100. According to the proliferation rate and concentration corresponding to each gradient concentration well, a gradient curve for cell proliferation was fitted using Prism Graphpad software, and the GI50 (GI50 is defined as the compound concentration corresponding to a cell proliferation inhibition rate of 50%) of the compound was calculated.

[5] = test system: HER2 A775_G776insYVMA mutant Ba/F3 cells; assay: Ba/F3 cell proliferation assay (Celltiter-Glo); format: cell-based; details: 72 h incubation
Description: as §1, §2

[6] = test system: EGFR wild-type Ba/F3 cells; assay: Ba/F3 cell proliferation assay (Celltiter-Glo); format: cell-based; details: 72 h incubation
Description: as §1, §2

In the case of `C=CC(=O)N1[C@@H]2CC[C@H]1C[C@@H](Oc1ccc3ncnc(Nc4ccc(Oc5ccn6ncnc6c5)c(C)c4F)c3c1)C2` [Crystal form H, 1-(endo-3-((4-((4-([1,2,4]Triazolo[1,5-a]pyridin-7-yloxy)-2-fluoro-3-methylphenyl)amino)quinazolin-6-yl)oxy)-8-azabicyclo[3.2.1]octan-8-yl)prop-2-en-1-one], the Color and appearance ([1]; 40 °C, 1 month) is reported as “White powder”, the Crystal form ([1]; 40 °C, 1 month) is reported as “No change” and the “Purity (%)” value ([1]; 40 °C, 1 month) is reported as 99.4%. The Color and appearance ([1]; 40 °C, 7 days) was “White powder”, the Crystal form ([1]; 40 °C, 7 days) was “No change” and the Color and appearance ([1]; 40 °C, 14 days) was “White powder”. For the same molecule, the Crystal form ([1]; 40 °C, 14 days) was “No change”, the Color and appearance ([1]; 60 °C, 1 month) was “White powder” and the Crystal form ([1]; 60 °C, 1 month) was “No change”. The “Purity (%)” value ([1]; 60 °C, 1 month) was 99.4%, the Color and appearance ([1]; 60 °C, 7 days) was “White powder” and the Crystal form ([1]; 60 °C, 7 days) was “No change”. For the same molecule, the Color and appearance ([1]; 60 °C, 14 days) was “White powder”, the Crystal form ([1]; 60 °C, 14 days) was “No change” and the Color and appearance ([1]; 75% RH, 1 month) was “White powder”. The Crystal form ([1]; 75% RH, 1 month) was “No change”, the Color and appearance ([1]; 75% RH, 7 days) was “White powder” and the Crystal form ([1]; 75% RH, 7 days) was “No change”. The Color and appearance ([1]; 75% RH, 14 days) was “White powder”, the Crystal form ([1]; 75% RH, 14 days) was “No change” and the Color and appearance ([1]; 92.5% RH, 1 month) was “White powder”. For the same molecule, the Crystal form ([1]; 92.5% RH, 1 month) was “No change”, the Color and appearance ([1]; 92.5% RH, 7 days) was “White powder” and the Crystal form ([1]; 92.5% RH, 7 days) was “No change”. The Color and appearance ([1]; 92.5% RH, 14 days) was “White powder”, the Crystal form ([1]; 92.5% RH, 14 days) was “No change” and the Color and appearance ([1]; 4500 Lux, 1 month) was “White powder”. The Crystal form ([1]; 4500 Lux, 1 month) was “No change”, the Color and appearance ([1]; 4500 Lux, 7 days) was “White powder” and the Crystal form ([1]; 4500 Lux, 7 days) was “No change”. The Color and appearance ([1]; 4500 Lux, 14 days) was “White powder”, the Crystal form ([1]; 4500 Lux, 14 days) was “No change” and the Color and appearance ([1]; Initial, 0) was “White powder”. The Crystal form ([1]; Initial, 0) was “Crystal form H”, the “Purity (%)” value ([1]; Initial, 0) was 99.8% and the “physical and chemical stability” value ([1]; light exposure (4500 Lux), high temperature (40 °C and 60 °C), high humidity (RH 75% and RH 92.5%), 30 days) was “Conclusion: Standing under light exposure (4500 Lux), high temperature (40 °C and 60 °C), and high humidity (RH 75% and RH 92.5%) conditions for 30 days, the crystal form H exhibited good physical and chemical stability”. For the same molecule, the hygroscopic weight gain ([2]; accelerated experimental conditions, 70% RH) was “about 0.12%”, the hygroscopic weight gain ([2]; extreme conditions, 90% RH) was “about 0.22%” and the hygroscopic weight gain ([2]; normal storage conditions, 25 °C and 60% RH) was “about 0.09%”. For the same molecule, the Color and appearance ([3]; 25 °C/60% RH, 1 month) was “White powder”, the Crystal form ([3]; 25 °C/60% RH, 1 month) was “No change” and the Color and appearance ([3]; 25 °C/60% RH, 2 months) was “White powder”. The Crystal form ([3]; 25 °C/60% RH, 2 months) was “No change”, the Color and appearance ([3]; 25 °C/60% RH, 3 months) was “White powder” and the Crystal form ([3]; 25 °C/60% RH, 3 months) was “No change”. The Color and appearance ([3]; 25 °C/60% RH, 6 months) was “White powder”, the Crystal form ([3]; 25 °C/60% RH, 6 months) was “No change” and the Color and appearance ([3]; 25 °C/60% RH, 14 days) was “White powder”. For the same molecule, the Crystal form ([3]; 25 °C/60% RH, 14 days) was “No change”, the Color and appearance ([3]; 40 °C/75% RH, 1 month) was “White powder” and the Crystal form ([3]; 40 °C/75% RH, 1 month) was “No change”. For the same molecule, the Color and appearance ([3]; 40 °C/75% RH, 2 months) was “White powder”, the Crystal form ([3]; 40 °C/75% RH, 2 months) was “No change” and the Color and appearance ([3]; 40 °C/75% RH, 3 months) was “White powder”. The Crystal form ([3]; 40 °C/75% RH, 3 months) was “No change”, the Color and appearance ([3]; 40 °C/75% RH, 6 months) was “White powder” and the Crystal form ([3]; 40 °C/75% RH, 6 months) was “No change”. The Color and appearance ([3]; 40 °C/75% RH, 14 days) was “White powder”, the Crystal form ([3]; 40 °C/75% RH, 14 days) was “No change” and the Color and appearance ([3]; Initial, 0) was “White powder”. The Crystal form ([3]; Initial, 0) was “Crystal form H”, the “Purity (%)” value ([3]; Initial, 0) was 99.8% and the “physical and chemical stability” value ([3]; long-term/accelerated conditions) was “Conclusion: Under long-term/accelerated conditions, the crystal form H exhibited good physical and chemical stability”.
With `C=CC(=O)N1[C@@H]2CC[C@H]1C[C@@H](Oc1ccc3ncnc(Nc4ccc(Oc5ccn6ncnc6c5)c(C)c4F)c3c1)C2` [Example 1, 1-(endo-3-((4-((4-([1,2,4]Triazolo[1,5-a]pyridin-7-yloxy)-2-fluoro-3-methylphenyl)amino)quinazolin-6-yl)oxy)-8-azabicyclo[3.2.1]octan-8-yl)prop-2-en-1-one] the “HER2 WT/ BaF3 Imax %” value [4] was 100%, the “HER2 A775_G776 ins YVMA/ BaF3 Imax %” value [5] was 100% and the “EGFR WT/ BaF3 Imax %” value [6] was 100%.
For `Cc1cc(Nc2ncnc3ccc(NC4=NC(C)(C)CO4)cc23)ccc1Oc1ccn2ncnc2c1` [Tucatinib, reference compound], the “HER2 A775_G776 ins YVMA/ BaF3 Imax %” value [5] was 100%.
